Measurements: patent US20150065442A1, “REDUCIBLE SELF-ASSEMBLED MICELLE DRUG DELIVERY SYSTEMS” (University of Manitoba, priority 2012, published 2015)

Columns and labels:
HepG2 cells = experiment: MTT cytotoxicity (cell inhibition) assay; format: cell-based, human
Protocol: Hepatoma cells (HepG2) were used to investigate cell inhibition of DOX-loaded nanoparticles. HepG2 cells were obtained from the American Type Culture Collection and cultured with Dulbecco's Modified Eagle's Medium (DMEM, GIBCO) supplemented with 10% fetal bovine serum (FBS, GIBCO), 1.0×10^5 U/l penicillin (Sigma) and 100 mg/l streptomycin (Sigma) at 37° C. in 5% CO2.
The cytotoxicity of the copolymeric micelles loaded with DOX was determined using the MTT Cell Proliferation Kit (Biotium Inc., Hayward, Calif., USA). HepG2 cells were seeded into a 96-well tissue culture plate at a density of 8,000 cells per well and were incubated at 37° C. in 5% CO2. The growth medium was replaced with fresh DMEM after 24 h. Then the DOX-loaded PAE polymeric micelle solution and controls (free DOX and blank micelle solutions) were added into wells (six wells per sample). After 48 h of incubation, 10 μL MTT solution was added to each well and incubation continued for another 4 h. […] The absorbance of each well was measured using an ELISA plate reader at a test wavelength of 570 nm and a reference wavelength of 630 nm. The cell inhibition of samples was calculated as: […]
where Isample and Icontrol represent the intensity determined for cells treated with different samples and for control cells (untreated), respectively.

[1] = tested on: MCF-7 human breast cancer cells; experiment: Cellular uptake of DOX by confocal laser scanning microscopy; format: cell-based
Protocol: Confocal laser scanning microscopy (CLSM) was employed to examine the cellular uptake of DOX by incubating MCF-7 human breast cancer cells with free DOX or DOX-loaded reducible self-assembled rPAE micelles or DOX-loaded non-reducible self-assembled nPAE micelles for 15 min and 2 h. First, the MCF-7 cells were seeded in 10-cm culture dishes at a density of 2×10^5 cells/dish, overlaid with cover slips, and cultured for 24 h. Then, the cells were exposed to DOX-loaded micelles. After the predetermined incubation times, the cover slips were removed and washed with cold PBS three times after which, the cells were fixed by 4% paraformaldehyde in PBS at room temperature for 15 min. After fixation, the cells were permeabilized by 0.1% Triton X-100 in PBS for 10 min and then rinsed with PBS three times. The cells were incubated in 10 uM BODIPY® FL phallacidin/1% (w/v) BSA solution for 20 min and then rinsed with PBS three times. The cells were then incubated in 10 μM Topro-3 for 20 min and then rinsed with PBS three times. The cover slips were set onto microscope slides and examined by CLSM.

[2] = tested on: hepatocellular carcinomatous HepG2 cells; experiment: as above; format: cell-based, human
Protocol: Confocal laser scanning microscopy (CLSM) was employed to examine the cellular uptake of DOX by incubating hepatocellular carcinomatous HepG2 cells with free DOX or the DOX-loaded micelles for 15 min, 2 h or 24 h. First, the HepG2 cells were seeded in culture dishes at a density of 2×10^5 cells/dish, overlaid with cover slips, and cultured for 24 h. Then, the cells were exposed to DOX-loaded micelles. After predetermined incubation times, the cover slips were removed and was washed with cold PBS three times after which, the cells were fixed by 4% paraformaldehyde in PBS at room temperature for 15 min. After fixation, the cells were permeabilized by 0.1% Triton X-100 in PBS for 10 min and then rinsed with PBS three times. The cells were incubated in 10 uM BODIPY® FL phallacidin/1% (w/v) BSA solution for 20 min and then rinsed with PBS three times (BODIPY is a registered trademark of Molecular Probes Inc., Eugene, Oreg., USA). The cells were then incubated in 10 μM Topro-3 for 20 min and then rinsed with PBS three times. The cover slips were set onto microscope slides and examined by CLSM.

`COc1cccc2c1C(=O)c1c(O)c3c(c(O)c1C2=O)C[C@@](O)(C(=O)CO)C[C@@H]3O[C@H]1C[C@H](N)[C@H](O)[C@H](C)O1` [free DOX, doxorubicin] was tested, and the “Cytotoxicity, dose dependence” value (HepG2 cells) was “increases with increasing dose”, the “Intracellular DOX fluorescence” value ([1]; MCF-7, 15 min of incubation) was “fluorescing DOX molecules were observed intracellularly” and the “Intracellular DOX fluorescence” value ([1]; MCF-7, 2 hr of incubation) was “accumulations of DOX molecules around the nuclei”. The “Intracellular distribution of DOX fluorescence” value (“Intracellular distribution” below) ([2]; HepG2, 15-min incubation) was “evenly distributed in cell cytoplasm and the nuclei”, the “Intracellular distribution” value ([2]; HepG2, 2 h exposure) was “DOX fluorescence accumulation was detected in and around the nuclei” and the “Cell morphology after exposure” value ([2]; HepG2, 24 h exposure) was “nucleus became distinctively swollen and the cytoplasm shrank”. The “Intracellular distribution” value ([2]; HepG2, 24 h exposure) was “most of DOX fluorescence was distributed into the nucleus”.
